Earlier results as cited in patent US20060035883A1, “Novel serotonin receptor ligands and their uses thereof” (priority 2004, published 2006).
pKi: −log10 of the molar value.

How the values were obtained:
Conditions in all cases: read-out: Receptor affinities (Ki)
D2 = D2 (Homo sapiens, UniProt P14416)
5-HT2C = biological target: T1, 5-HT2C (Homo sapiens, UniProt P28335)
T1 sequence (P28335 33-458): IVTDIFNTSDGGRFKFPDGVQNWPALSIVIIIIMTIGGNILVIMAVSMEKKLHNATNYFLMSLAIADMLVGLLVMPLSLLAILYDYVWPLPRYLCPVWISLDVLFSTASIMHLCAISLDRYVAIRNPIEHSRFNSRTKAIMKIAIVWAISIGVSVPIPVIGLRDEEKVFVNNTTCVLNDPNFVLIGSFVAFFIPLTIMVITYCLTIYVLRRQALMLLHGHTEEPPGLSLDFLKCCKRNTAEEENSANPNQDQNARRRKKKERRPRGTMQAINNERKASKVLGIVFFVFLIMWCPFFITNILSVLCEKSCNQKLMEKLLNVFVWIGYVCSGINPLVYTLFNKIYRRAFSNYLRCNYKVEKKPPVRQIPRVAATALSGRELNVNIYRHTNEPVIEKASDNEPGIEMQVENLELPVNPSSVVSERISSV

5-HT3 = biological target: T2, 5-HT3 (Homo sapiens, UniProt P46098)
T2 sequence (P46098 24-478): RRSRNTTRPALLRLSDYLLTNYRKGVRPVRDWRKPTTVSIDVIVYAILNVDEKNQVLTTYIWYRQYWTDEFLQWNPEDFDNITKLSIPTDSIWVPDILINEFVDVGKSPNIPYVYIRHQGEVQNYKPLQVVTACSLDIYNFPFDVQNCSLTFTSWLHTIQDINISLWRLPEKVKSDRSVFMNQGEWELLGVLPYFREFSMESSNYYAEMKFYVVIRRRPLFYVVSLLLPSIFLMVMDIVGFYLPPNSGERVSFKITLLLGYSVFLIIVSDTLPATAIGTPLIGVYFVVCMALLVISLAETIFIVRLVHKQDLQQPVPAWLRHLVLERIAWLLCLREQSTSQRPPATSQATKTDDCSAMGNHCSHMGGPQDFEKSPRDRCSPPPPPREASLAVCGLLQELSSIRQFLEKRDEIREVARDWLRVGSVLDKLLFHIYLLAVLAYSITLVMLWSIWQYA

α1 = biological target: α1
α2 = biological target: α2

D2, sequence (P14416 whole entry): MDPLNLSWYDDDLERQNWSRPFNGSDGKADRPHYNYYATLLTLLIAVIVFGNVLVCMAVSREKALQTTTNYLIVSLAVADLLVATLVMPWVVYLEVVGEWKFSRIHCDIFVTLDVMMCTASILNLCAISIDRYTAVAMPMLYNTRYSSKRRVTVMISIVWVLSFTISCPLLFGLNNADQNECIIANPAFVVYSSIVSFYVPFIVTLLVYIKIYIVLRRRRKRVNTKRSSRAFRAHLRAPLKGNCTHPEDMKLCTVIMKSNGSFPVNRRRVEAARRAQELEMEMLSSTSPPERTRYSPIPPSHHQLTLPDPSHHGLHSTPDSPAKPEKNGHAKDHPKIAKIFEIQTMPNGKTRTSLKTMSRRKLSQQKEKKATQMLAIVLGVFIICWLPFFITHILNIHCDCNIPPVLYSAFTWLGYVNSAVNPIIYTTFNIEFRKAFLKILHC

SMILES | pKi (D2) | pKi (5-HT2C) | pKi (5-HT3) | pKi (α1) | pKi (α2)
CN1CCN2c3ccccc3Cc3ccccc3C2C1 (stereo not drawn) [Mianserin] | < 6.00 | – | – | – | –
CN1CCN2c3ncccc3Cc3ccccc3C2C1 (stereo not drawn) [Mirtazepine, mirtazepine] | < 6.00 | 7.92 | 8.10 | 6.30 | 7.19
